Data published in patent US10233198B2, “Pro-drugs of NSAIAs with very high skin and membranes penetration rates and their new medicinal uses” (Techfields Pharma Co., Ltd., priority 2007, dated 2019).

Key:
[1] = in vivo
Method: The in vivo rates of penetration of pro-drugs and their parent drugs through the skin of intact rats were compared. The donor consisted of 20% pro-drugs or their parent drugs in 1 ml of ethanol applied to about 5 cm^2 area on the backs of rats (˜200 g). After 4 hours, the rats were killed, and 5 ml of methanol was added to 1 ml of blood, 1 g of liver, 1 g of kidney, or 1 g of brain (liver, kidney or brain was washed with pH 7.2 buffer for three times) and the mixtures were homogenized. The samples were then centrifuged for 5 min and analyzed using HPLC.
After 4 hours, the rats were killed, and 5 ml of methanol was added to 1 ml of blood, 1 g of liver, 1 g of kidney, or 1 g of brain (liver, kidney or brain was washed with pH 7.2 buffer for three times) and the mixtures were homogenized.

Chinese White rabbits = experiment: Malassezia-induced psoriasis-like lesions; format: in vivo; conditions: 5% aqueous solution applied twice per day; 10 days after the application
Text: COX-1 and COX-2 play a very important role in animal immune-responses. NSAIAs inhibite COX-1 and COX-2. The pro-drugs of NSAIAs in this invention may be very useful for treating psoriasis, discoid lupus erythematosus, systemic lupus erythematosus (SLE), and other autoimmune diseases. Heavy suspensions of Malassezia [Rosenberg, E. W., et al., Mycopathologia, 72, 147-154 (1980)] were applied to the shaved skin on the backs of the Chinese white rabbits (n=4×6) twice (at 7 am and 7 pm) per day for 2 weeks, lesions similar to psoriasis resulted.

[2] = system: SLAC/GK rats, type 2 diabetes; experiment: Blood lipid levels in type 2 diabetic rats, oral with food; format: in vivo
Text: The pH of stomach juice is 1-3. The negative charge on the phosphate head group of membrane is neutralized by the proton and the positive charge on the amino groups of these pro-drugs cannot bond to the phosphate head group of membranes, then the pro-drugs cannot pass through the wall of the stomach and will not hurt or upset the stomach. The pH of the duodenum is about 5-7 and the pro-drugs can pass through the mucosa of duodenum. The pancreas is nearby and large amount of the pro-drugs will enter there before going to the liver, kidneys, and the general circulation where the drug will be metabolized, so only very low dose of these pro-drugs are needed and very few and low side effects will be caused. The 20% acetone solution of diethylaminoethyl acetylsalicylate.acetylsalicylic acid salt (P-1, in acetone); 4-acetamidophenyl salicylyldimethylaminobutyrate.HCl (P-6), diethylaminoethyl 5-(2,4-difluorophenyl) acetylsalicylate.5-(2,4-difluorophenyl) acetylsalicylic acid salt (P-8), diethylaminoethyl salicylsalicylate.AcOH (P-9), diethylaminoethyl salicylate.AcOH (P-10), diethylaminoethyl 5-acetamido-acetylsalicylate (P-58), diethylaminoethyl acetylsalicylsalicylate. acetylsalicylsalicylic acid salt (P-59), diethylaminoethyl acetylsalicylsalicylate. acetylsalicylsalicylsalicylic acid salt (P-60) (equal to of 15 mg/kg of NSAIAs) were mixed with food and were orally administered to the rats (SLAC/GK, type 2 diabetes, n=7) with food every day for 5 weeks. The blood glucose levels were measured once every 3 days at 3 pm (no fasting) from the second week to the fifth week. The blood lipid levels were measured at the end of the fifth week.

normal rats = experiment: Blood glucose in normal rats, transdermal; format: in vivo; conditions: no fasting; for Blood glucose, normal rats, Baseline: baseline of the treatment group; for Blood glucose, normal rats, Average: transdermal, equal to 20 mg/kg of NSAIAs once per day for 5 weeks, second to fifth week
[3] = system: SLAC/GK rats, type 2 diabetes; experiment: Blood lipid levels in type 2 diabetic rats, transdermal; format: in vivo; conditions: for Triglycerides, Baseline: baseline of the treatment group; for Triglycerides, Average / Cholesterol (total), Average: end of fifth week, transdermal, equal to 20 mg/kg of NSAIAs once per day
Text: (§1) The pro-drugs in this invention lower blood glucose levels in rat models (SLAC/GK, type 2 diabetes, n=7). 50% acetone solution of diethylaminoethyl acetylsalicylate.acetylsaficylic acid salt (P-1, in acetone); 4-acetamidophenyl salicylyldimethylaminobutyrate.HCl (P-6), diethylaminoethyl 5-(2,4-difluorophenyl) acetylsalicylate.5-(2,4-difluorophenyl) acetylsalicylic acid salt (P-8), diethylaminoethyl salicylsalicylate.AcOH (P-9), diethylaminoethyl salicylate.AcOH (P-10), diethylaminoethyl 5-acetamido-acetylsalicylate (P-58), diethylaminoethyl acetylsalicylsalicylate. acetylsalicylsalicylic acid salt (P-59), diethylaminoethyl acetylsalicylsalicylate. acetylsalicylsalicylsalicylic acid salt (P-60) (equal to of 20 mg/kg of NSAIAs) were administered transdermally to the backs (about 1.5 cm^2) of rats (fur was shaved) once per day (at 8 am) for 5 weeks. The blood glucose levels were measured once every 3 days at 4 pm (no fasting) from the second week to the fifth week. The blood lipid levels were measured at the end of the fifth week.

[4] = system: SLAC/GK rats, type 2 diabetes; experiment: Blood glucose in type 2 diabetic rats, transdermal; format: in vivo; conditions: no fasting; for Blood glucose, diabetic rats, Baseline: baseline of the treatment group; for Blood glucose, diabetic rats, Average: transdermal, equal to 20 mg/kg of NSAIAs once per day for 5 weeks, measured every 3 days, second to fifth week
Text: as §1

[5] = system: SLAC:NOD-IDDM mice, type 1 diabetes; experiment: Blood glucose in type 1 diabetic mice, transdermal; format: in vivo; conditions: no fasting; for Blood glucose, type I diabetic mice, Baseline: baseline of the treatment group; for Blood glucose, type I diabetic mice, Average: transdermal, equal to 20 mg/kg of NSAIAs once per day for 7 weeks, fourth to seventh week
Text: The pro-drugs in this invention lower blood glucose levels in mouse models (SLAC:NOD-IDDM, type 1 diabetes, n=7). 20% acetone solution of diethylaminoethyl acetylsalicylate.acetylsalicylic acid salt (P-1, in acetone); 4-acetamidophenyl salicylyldimethylaminobutyrate.HCl (P-6), diethylaminoethyl 5-(2,4-difluorophenyl) acetylsalicylate.5-(2,4-difluorophenyl) acetylsalicylic acid salt (P-8), diethylaminoethyl salicylsalicylate.AcOH (P-9), diethylaminoethyl salicylate.AcOH (P-10), diethylaminoethyl 5-acetamido-acetylsalicylate (P-58), diethylaminoethyl acetylsalicylsalicylate. acetylsalicylsalicylic acid salt (P-59), diethylaminoethyl acetylsalicylsalicylate. acetylsalicylsalicylsalicylic acid salt (P-60) (equal to of 20 mg/kg of NSAIAs) were administered transdermally to the backs (about 1 cm^2) of mice (fur was shaved) once per day (at 8 am) for 7 weeks. The blood glucose levels were measured once every 3 days at 3 pm (no fasting) from the fourth week to the seventh week.

[6] = baseline of the treatment group
[7] = end of fifth week, oral with food, equal to 15 mg/kg of NSAIAs every day

CC(=O)Oc1ccccc1C(=O)O [Aspirin]
Drug found in rat tissues or plasma after topical application of the parent drug itself [1]: None of these drugs was found

CC(=O)O.CC(C)Cc1ccc(C(C)C(=O)OCC2CCCNC2)cc1 (centres unmarked) [P-5, 3-piperidinemethyl 2-(ρ-isobutylphenyl) propionate.AcOH]
Psoriasis-like lesions (Chinese White rabbits): the lesions were resolved

CC(=O)Nc1ccc(OC(=O)c2ccccc2OC(=O)CCCN(C)C)cc1.Cl [P-6, 4-acetamidophenyl salicylyldimethylaminobutyrate.HCl]
Cholesterol (HDL), Baseline [2, 6]: 1.8 ± 0.1 mmol/L
Triglycerides, Baseline [2, 6]: 5.9 ± 0.5 mmol/L
Blood glucose, normal rats, Baseline (normal rats): 6.8 ± 1 mmol/L
Blood glucose, normal rats, Average (normal rats): 6.5 ± 1 mmol/L
Triglycerides, Baseline [3]: 6.3 ± 0.5 mmol/L
Blood glucose, diabetic rats, Baseline [4]: 16.7 ± 4 mmol/L
Blood glucose, diabetic rats, Average [4]: 8.5 ± 2 mmol/L
Blood glucose, type I diabetic mice, Baseline [5]: 27.7 ± 4 mmol/L
Blood glucose, type I diabetic mice, Average [5]: 9.5 ± 2 mmol/L

CC(=O)Oc1ccc(-c2ccc(F)cc2F)cc1C(=O)O.CCN(CC)CCOC(=O)c1cc(-c2ccc(F)cc2F)ccc1OC(C)=O [P-8, diethylaminoethyl 5-(2,4-difluorophenyl) acetylsalicylate.5-(2,4-difluorophenyl) acetylsalicylic acid salt]
Cholesterol (total), Baseline [2, 6]: 7.4 ± 0.6 mmol/L
Triglycerides, Baseline [2, 6]: 6.2 ± 0.7 mmol/L
Cholesterol (total), Average [2, 7]: 5.1 ± 0.3 mmol/L
Blood glucose, normal rats, Baseline (normal rats): 7.1 ± 1 mmol/L
Triglycerides, Average [3]: 2.1 ± 0.2 mmol/L
Blood glucose, diabetic rats, Baseline [4]: 17.1 ± 3 mmol/L
Blood glucose, diabetic rats, Average [4]: 8.1 ± 1 mmol/L
Blood glucose, type I diabetic mice, Baseline [5]: 29.1 ± 5 mmol/L
Blood glucose, type I diabetic mice, Average [5]: 9.1 ± 1 mmol/L

CC(=O)O.CCN(CC)CCOC(=O)c1ccccc1OC(=O)c1ccccc1O [P-9, diethylaminoethyl salicylsalicylate.AcOH]
Cholesterol (total), Average [2, 7]: 5.3 ± 0.4 mmol/L
Blood glucose, normal rats, Baseline (normal rats): 6.5 ± 1 mmol/L
Blood glucose, normal rats, Average (normal rats): 6.7 ± 1 mmol/L
Triglycerides, Baseline [3]: 5.7 ± 0.5 mmol/L
Triglycerides, Average [3]: 2.6 ± 0.2 mmol/L
Blood glucose, diabetic rats, Average [4]: 8.4 ± 1 mmol/L
Blood glucose, type I diabetic mice, Baseline [5]: 26.5 ± 4 mmol/L
Blood glucose, type I diabetic mice, Average [5]: 9.4 ± 1 mmol/L

CC(=O)O.CCN(CC)CCOC(=O)c1ccccc1O [P-10, diethylaminoethyl salicylate.AcOH]
Blood glucose, normal rats, Baseline (normal rats): 6.8 ± 1 mmol/L
Triglycerides, Baseline [3]: 6.6 ± 0.6 mmol/L
Triglycerides, Average [3]: 2.9 ± 0.2 mmol/L
Blood glucose, diabetic rats, Baseline [4]: 15.8 ± 3 mmol/L
Blood glucose, diabetic rats, Average [4]: 8.2 ± 1 mmol/L
Blood glucose, type I diabetic mice, Baseline [5]: 25.8 ± 3 mmol/L
Blood glucose, type I diabetic mice, Average [5]: 8.2 ± 1 mmol/L

CC(=O)O.CCN(CC)CCOC(=O)Cc1cc(C)c(C(=O)c2ccc(Cl)cc2)n1C [P-14, diethylaminoethyl 5-(4-Chlorobenzoyl)-1,4-dimethyl-1H-pyrrole-2-acetate.AcOH]
Psoriasis-like lesions (Chinese White rabbits): the lesions were resolved

CC(=O)O.CCc1cccc2c3c([nH]c12)C(CC)(CC(=O)OCCN(CC)CC)OCC3 (centres unmarked) [P-15, diethylaminoethyl 1,8-diethyl-1,3,4,9-tetrahydropyrano-[3,4-b]indole-1-acetate.AcOH]
Psoriasis-like lesions (Chinese White rabbits): the lesions were resolved

CCN(CC)CCOC(=O)c1cc(NC(C)=O)ccc1OC(C)=O [P-58, diethylaminoethyl 5-acetamido-acetylsalicylate]
Triglycerides, Baseline [2, 6]: 5.9 ± 0.5 mmol/L
Cholesterol (total), Average [2, 7]: 4.9 ± 0.4 mmol/L
Triglycerides, Average [2, 7]: 2.8 ± 0.2 mmol/L
Blood glucose, normal rats, Average (normal rats): 7.1 ± 1 mmol/L
Cholesterol (total), Average [3]: 5.4 ± 0.4 mmol/L
Blood glucose, diabetic rats, Baseline [4]: 17.1 ± 3 mmol/L
Blood glucose, type I diabetic mice, Baseline [5]: 27.1 ± 3 mmol/L
Blood glucose, type I diabetic mice, Average [5]: 7.9 ± 1 mmol/L

CC(=O)Oc1ccccc1C(=O)Oc1ccccc1C(=O)Oc1ccccc1C(=O)O.CCN(CC)CCOC(=O)c1ccccc1OC(=O)c1ccccc1OC(C)=O [P-60, diethylaminoethyl acetylsalicylsalicylate. acetylsalicylsalicylsalicylic acid salt]
Triglycerides, Baseline [2, 6]: 6.2 ± 0.5 mmol/L
Cholesterol (total), Average [2, 7]: 5.0 ± 0.3 mmol/L
Blood glucose, normal rats, Baseline (normal rats): 6.6 ± 1 mmol/L
Blood glucose, normal rats, Average (normal rats): 7.5 ± 1 mmol/L
Triglycerides, Baseline [3]: 5.7 ± 0.6 mmol/L
Cholesterol (total), Average [3]: 5.2 ± 0.3 mmol/L
Blood glucose, diabetic rats, Baseline [4]: 15.5 ± 3 mmol/L
Blood glucose, diabetic rats, Average [4]: 8.6 ± 1 mmol/L
Blood glucose, type I diabetic mice, Baseline [5]: 25.5 ± 3 mmol/L
Blood glucose, type I diabetic mice, Average [5]: 8.6 ± 1 mmol/L

O=C(O)c1ccccc1O [Salicylic acid]
Brain level of prodrug or metabolites ([1]; rat, 4 h): 30 ± 6 µg/g
Kidney level of prodrug or metabolites ([1]; rat, 4 h): 45 ± 6 µg/g
Liver level of prodrug or metabolites ([1]; rat, 4 h): 30 ± 8 µg/g
Plasma level of prodrug or metabolites ([1]; rat, 4 h): 80 ± 10 µg/mL

O=C(O)Cc1ccccc1Nc1c(Cl)cccc1Cl [diclofenac]
Drug found in rat tissues or plasma after topical application of the parent drug itself [1]: None of these drugs was found
Brain level of prodrug or metabolite ([1]; rat, 4 h): 40 ± 5 µg/g
Kidney level of prodrug or metabolite ([1]; rat, 4 h): 48 ± 6 µg/g
Liver level of prodrug or metabolite ([1]; rat, 4 h): 25 ± 8 µg/g
Plasma level of prodrug or metabolite ([1]; rat, 4 h): 75 ± 8 µg/mL

CC(C(=O)O)c1cccc(Oc2ccccc2)c1 (centres unmarked) [fenoprofen]
Drug found in rat tissues or plasma after topical application of the parent drug itself [1]: None of these drugs was found
Brain level of prodrug or metabolite ([1]; rat, 4 h): 45 ± 5 µg/g
Kidney level of prodrug or metabolite ([1]; rat, 4 h): 48 ± 6 µg/g
Liver level of prodrug or metabolite ([1]; rat, 4 h): 38 ± 8 µg/g
Plasma level of prodrug or metabolite ([1]; rat, 4 h): 80 ± 8 µg/mL

CC(C)Cc1ccc(C(C)C(=O)O)cc1 (centres unmarked) [ibuprofen]
Drug found in rat tissues or plasma after topical application of the parent drug itself [1]: None of these drugs was found
Brain level of prodrug or metabolite ([1]; rat, 4 h): 35 ± 5 µg/g
Kidney level of prodrug or metabolite ([1]; rat, 4 h): 45 ± 6 µg/g
Liver level of prodrug or metabolite ([1]; rat, 4 h): 35 ± 8 µg/g
Plasma level of prodrug or metabolite ([1]; rat, 4 h): 70 ± 8 µg/mL
